Values quoted from earlier work, collected in patent EP3463364B1, “PYRAZINE DERIVATIVES FOR USE IN THE TREATMENT OF DISEASES ASSOCIATED WITH CELL CYCLE DYSREGULATION” (University of Patras, priority 2016, dated 2017).

Target: T1, Geminin-Cdtl interaction (Homo sapiens, UniProt Q9H211)
T1 sequence (Q9H211 1-546): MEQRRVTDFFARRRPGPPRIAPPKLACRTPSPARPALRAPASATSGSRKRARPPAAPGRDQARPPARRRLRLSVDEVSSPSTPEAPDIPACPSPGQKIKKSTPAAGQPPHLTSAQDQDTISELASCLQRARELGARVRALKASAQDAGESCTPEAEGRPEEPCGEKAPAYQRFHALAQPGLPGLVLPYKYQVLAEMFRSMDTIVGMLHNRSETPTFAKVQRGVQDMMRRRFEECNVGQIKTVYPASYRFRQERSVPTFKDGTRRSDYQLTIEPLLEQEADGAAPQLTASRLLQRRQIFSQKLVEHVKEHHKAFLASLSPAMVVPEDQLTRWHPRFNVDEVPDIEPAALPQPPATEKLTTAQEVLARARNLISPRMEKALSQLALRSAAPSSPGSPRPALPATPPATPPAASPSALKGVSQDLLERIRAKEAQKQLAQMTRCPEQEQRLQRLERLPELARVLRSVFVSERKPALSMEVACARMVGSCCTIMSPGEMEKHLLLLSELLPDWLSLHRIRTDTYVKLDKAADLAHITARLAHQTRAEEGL
Details: in vitro, through binding to the Cdtl licensing factor; literature; cited from earlier work

In the case of `COC1=C(OC)C(=O)C(C/C=C(\C)CC/C=C(\C)CC/C=C(\C)CC/C=C(\C)CC/C=C(\C)CC/C=C(\C)CC/C=C(\C)CC/C=C(\C)CC/C=C(\C)CCC=C(C)C)=C(C)C1=O` [coenzyme Q10], the “inhibition of the Geminin-Cdtl interaction” value is listed as “inhibit the interaction of the two proteins in vitro”.

For `CCCCCCCC/C=C\CCCCCCCC(=O)O` [oleic acid (C18:1), oleic acid], the “inhibition of the Geminin-Cdtl interaction” value is given as “inhibit the interaction of the two proteins in vitro”.
